In patent US6448263B1, “Treatment of insulin resistance with growth hormone secretagogues” (Pfizer Inc., priority 1997, dated 2002):
Structures can show the parent of a compound that is named as a salt.

Test system: female Sprague-Dawley rats (Sham and Ovx)
Experiment: Female Rat Study: chronic oral treatment with a GHRP mimetic, non-fasting plasma insulin and metabolite levels
Type: in vivo
Details: non-fasting blood at sacrifice
Procedure: This study evaluates the effect of chronic treatment with a GHRP mimetic on weight, body composition and non-fasting plasma concentrations of glucose, insulin, lactate and lipids in estrogen-deficient and estrogenreplete female rats. Acute responsiveness of serum GH levels to i.v. administration of the GH releasing agent was assessed on the last day of dosing. Body weight was monitored weekly throughout the treatment period; additionally, body composition and plasma levels of glucose, insulin, lactate, cholesterol and triglycerides were assessed at the end of treatment.
Virgin female Sprague-Dawley rats were obtained from Charles River Laboratories (Wilmington, Mass.) and underwent bilateral ovariectomy (Ovx) or sham-surgery (Sham) at approximately 12 weeks of age. For sham surgeries, ovaries were exteriorized and replaced into the abdominal cavity. Following surgery the rats were housed individually in 20 cm×32 cm×20 cm cages under standard vivarium conditions (about 24° C. with about 12 hours light/12 hours dark cycle). All rats were allowed free access to water and a pelleted commercial diet (Agway ProLab 3000, Agway Country Food, Inc., Syracuse, N.Y.). The experiment was conducted in accordance with NIH Guidelines for the Care and Use of Laboratory Animals.
Approximately seven months post-surgery, Sham and Ovx rats were weighed and randomly assigned to groups. Rats were dosed daily by oral gavage with 1 mL of either vehicle (1% ethanol in distilled-deionized water), 0.5 mg/kg or 5 mg/kg of a growth hormone releasing agent for 90 days. Rats were weighed at weekly intervals throughout the study. Twenty-four hours after the last oral dose, the acute response of serum growth hormone (GH) to test agent was assessed by the following procedure. Rats were anesthetized with sodium pentobarbital 50 mg/kg. Anesthetized rats were weighed and a baseline blood sample (˜100 μl) was collected from the tail vein. Test agent (growth hormone releasing agent or vehicle) was then administered intravenously via the tail vein in 1 mL. Approximately ten minutes after injection, a second 100 μl blood sample was collected from the tail. Blood was allowed to clot at about 4° C., then centrifuged at 2000×g for about 10 minutes. Serum was stored at about −70° C. Serum growth hormone concentrations were determined by radioimmunoassay as previously described. Following this procedure, each anesthetized rat underwent whole body scanning by dual-energy X-ray absorptiometry (DEXA, Hologic QDR 1000/W, Waltham Mass.). A final blood sample was collected by cardiac puncture into heparinized tubes. Plasma was separated by centrifugation and stored frozen as described above.
Plasma insulin is determined by radioimmunoassay using a kit from Binax Corp. (Portland, Me.). The interassay coefficient of variation is ≦10%. Plasma triglycerides, total cholesterol, glucose and lactate levels are measured using Abbott VP™ and VP Super System® Autoanalyzer (Abbott Laboratories, Irving, Texas), using the A-Gent™ Triglycerides, Cholesterol and Glucose Test reagent systems, and a lactate kit from Sigma, respectively. The plasma insulin, triglycerides, total cholesterol and lactate lowering activity of a growth hormone releasing peptide (GHRP) or GHRP mimetic such as a compound of formula I, are determined by statistical analysis (unpaired t-test) with the vehicle-treated control group.

[1] = Ovx rats, 0.5 mg/kg daily oral gavage for 90 days
[2] = Ovx rats, 5.0 mg/kg daily oral gavage for 90 days
[3] = Sham rats, 0.5 mg/kg daily oral gavage for 90 days
[4] = Sham rats, 5.0 mg/kg daily oral gavage for 90 days

`CN1N=C2CCN(C(=O)[C@@H](COCc3ccccc3)NC(=O)C(C)(C)N)C[C@@]2(Cc2ccccc2)C1=O` [2-amino-N-[2-(3a-(R)-benzyl-2-methyl-3-oxo-2,3,3a,4,6,7-hexahydro-pyrazolo[4,3-c]pyridin-5-yl)-1-(R)-(benzyloxymethyl)-2-oxo-ethyl]-isobutyramide L-tartaric acid salt] was tested, and the “Cholesterol (mean plasma level)” value [1] was 92.5 mg/dL, the “Glucose (mean plasma level)” value [1] was 179.7 mg/dL and the “Insulin (mean plasma level)” value [1] was “*78.7 uU/mL”. For the same compound, the “Lactate (mean plasma level)” value [1] was 3.6 mg/dL, the “Triglyceride (mean plasma level)” value [1] was 181.9 mg/dL and the “Cholesterol (mean plasma level)” value [2] was 102.2 mg/dL. The “Glucose (mean plasma level)” value [2] was 177.2 mg/dL, the “Insulin (mean plasma level)” value [2] was “*84.1 uU/mL” and the “Lactate (mean plasma level)” value [2] was 3.1 mg/dL. The “Triglyceride (mean plasma level)” value [2] was 158.4 mg/dL, the “Cholesterol (mean plasma level)” value [3] was 95.4 mg/dL and the “Glucose (mean plasma level)” value [3] was “*142.7 mg/dl”. The “Insulin (mean plasma level)” value [3] was 94.9 uU/mL, the “Lactate (mean plasma level)” value [3] was 3.7 mg/dL and the “Triglyceride (mean plasma level)” value [3] was 219.6 mg/dL. For the same compound, the “Cholesterol (mean plasma level)” value [4] was “*80.6 mg/dl”, the “Glucose (mean plasma level)” value [4] was “*139.9 mg/dl” and the “Insulin (mean plasma level)” value [4] was 95.7 uU/mL. For the same compound, the “Lactate (mean plasma level)” value [4] was “*3.2 mg/dl” and the “Triglyceride (mean plasma level)” value [4] was 227.2 mg/dL.
